Measured values taken from patent US20220242812A1, “SWELL1-LRRC8 COMPLEX MODULATORS” (Washington University, priority 2019, published 2022).

Tests used:
Type in all cases: in vivo
[1] = tested on: HFD-T2D mice, NAFLD; assay: Liver mass, triglycerides and NAFLD histology in HFD mice; settings: vs vehicle
Protocol: Gross liver weights were measured and identical sections from right medial lobe of liver were dissected for further examinations. Total triglyceride content was determined by homogenizing 10-50 mg of tissue in 1.5 ml of chloroform:methanol (2:1 v/v) and centrifuged at 12000 rpm for 10 mins at 4° C. An aliquot, 20 ul, was evaporated in a 1.5 ml microcentrifuge tube for 30 mins. Triglyceride content was determined by adding 100 μl of Infinity Triglyceride Reagent (Fisher Scientific) to the dried sample followed by 30 min incubation at RT. The samples were then transferred to a 96 well plate along with standards (0-2000 mg/di) and absorbance was measured at 540 nm and the final concentration was determined by normalizing to tissue weight. For histological examination, liver sections were fixed in 10% zinc formalin and paraffin embedded for sectioning. Hematoxylin and eosin (H&E) stained sections were then assessed for steatosis grade, lobular inflammation and hepatocyte ballooning for non-alcoholic fatty liver disease (NAFLD) scoring as described (Kleiner et al., 2005; Liang et al., 2014; Rauckhorst et al., 2017).
Nonalcoholic fatty liver disease (NAFLD), like T2D, is associated with insulin resistance. NASH is an advanced form of nonalcoholic liver disease defined by three histological features: hepatic steatosis, hepatic lobular inflammation, hepatocyte damage (ballooning) and can be present without or without fibrosis. NAFLD and T2D likely share at least some pathophysiologic mechanisms because more than one-third of patients (37%) with T2D have NASH and almost one-half of patients with NASH (44%) have T2D. […] This improved metabolic state can reduce ectopic lipid deposition and NAFLD that is associated with obesity and T2D.

[2] = tested on: non-T2D mice; assay: Metabolic phenotyping in non-T2D mice (KKAa control strain, lean chow-fed)
Protocol: (§1) All compounds were dissolved in Kolliphor® EL (Sigma, #C5135).
Mice were fasted for 6 h prior to glucose tolerance tests (GTT). Baseline glucose levels at 0 min timepoint (fasting glucose, FG) were measured from blood sample collected from tail snipping using glucometer (Bayer Healthcare LLC). Either 1 g or 0.75 g D-Glucose/kg body weight were injected (i.p.) for lean or HFD mice, respectively and glucose levels were measured at 7, 15, 30, 60, 90 and 120 min timepoints after injection. For insulin tolerance tests (ITTs), the mice were fasted for 4 h. Similar to GTTs, the baseline blood glucose levels were measured at 0 min timepoint and 15, 30, 60, 90 and 120 min timepoints post-injection (i.p.) of insulin (HumulinR, 1 U/kg body weight for lean mice or 1.25 U/kg body weight for HFD mice). […] The collected plasma was then measured for insulin content by using Ultra-Sensitive Mouse Insulin ELISA Kit (Crystal Chem, #90080). All mice and treatment groups were assessed blindly while performing experiments.

[3] = target: SWELL1 protein (Mus musculus, UniProt Q80WG5); assay: SWELL1 protein expression in adipose tissue of treated T2D mice; design: western blots detecting SWELL1 protein in visceral fat of C57BL/6 mice on high-fat diet; from tissue; host or cells: visceral / inguinal adipose tissue of C57BL/6 HFD and KKAy mice; settings: 5 mg/kg i.p.
Protocol: as §1
(SEQ ID NO: 13) (Pacific Antibodies).

[4] = HFD 16 weeks then intermittent dosing over 5 weeks
[5] = lean, non-T2D, glucose-tolerant mice, vs vehicle

## CCCCC1(C2CCCC2)Cc2cc(OCCCC(=O)O)c(Cl)c(Cl)c2C1=O (centres unmarked) [SN-401, 4-((2-butyl-6,7-dichloro-2-cyclopentyl-1-oxo-2,3-dihydro-1H-inden-5-yl)oxy)butanoic acid]
[1]; [4]
  Absolute and body mass-normalized liver mass: reduced
  Hepatic triglyceride concentration: lower
[1]; HFD mice
  Hepatic steatosis (histologic evaluation): significantly reduced
  Hepatocyte damage (histologic evaluation): significantly reduced
  Improvement of NAFLD activity score (NAS): > 2 points
[2]; control KKAa parental strain, 5 mg/kg x 4-10 days
  Hypoglycemia: does not cause hypoglycemia
[2]; [5]
  FG: similar
  GTT: similar
  ITT: similar
[3]; HFD-fed T2D mice
  SWELL1 expression in adipose tissue: 2.3 fold
[3]; T2D KKAy mice, compared to non-T2D C57/B6 and KKAa
  SWELL1 expression in adipose tissue: increases
